Test results reported in patent publication US7071168B2, “Anti-cancer compounds and methods related thereto” (The Regents of the University of Colorado, priority 1998, dated 2006).

Columns and labels:
[1] = target: T1, cloned human bradykinin B2 receptors (Homo sapiens, UniProt P30411); test: Anti-bradykinin activity on cloned human B2 receptors (CHO cells, Cytosensor microphysiometer); assay type: cell-based; settings: higher numbers indicate higher potency
T1 sequence (P30411 1-391): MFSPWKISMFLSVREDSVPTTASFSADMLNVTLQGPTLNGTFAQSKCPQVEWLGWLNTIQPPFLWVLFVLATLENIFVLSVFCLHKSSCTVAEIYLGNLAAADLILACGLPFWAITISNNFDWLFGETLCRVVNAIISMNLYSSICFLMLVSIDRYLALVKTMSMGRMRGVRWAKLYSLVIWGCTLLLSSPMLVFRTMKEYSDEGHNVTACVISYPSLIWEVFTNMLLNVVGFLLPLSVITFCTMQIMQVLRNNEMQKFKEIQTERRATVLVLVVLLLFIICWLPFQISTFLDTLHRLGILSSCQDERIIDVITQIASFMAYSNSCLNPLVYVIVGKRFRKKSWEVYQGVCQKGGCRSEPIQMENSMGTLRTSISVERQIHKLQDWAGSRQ
Experimental: In general, Anti-bradykinin activity was determined by the classical guinea pig ileum assay and on Chinese hamster ovary (CHO) cells expressing cloned human bradykinin B2 receptors. Anti-tumor activity was determined on cultured human cancer cell lines using the standard tetrazolium (MTT) assay.
Chinese hamster ovary cells containing cloned and expressed human bradykinin B2 receptors were grown in cell cups of the Cytosensor microphysiometer in Ham's F-12 medium supplemented with sodium pyruvate and 10% FBS (Gibco 11765-054). For assay the cells were transferred to Ham's F-12 without bicarbonate or serum (Gibco 21700-075) and placed in the Cytosensor. Concentration-response curves were constructed to bradykinin in the presence or absence of new compounds.

[2] = test system: bradykinin response of isolated guinea pig ileum; test: Anti-bradykinin activity on isolated guinea pig ileum
How it was run: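 Terminal ileum segments (25 mm) from overnight-fasted male Hartley guinea pigs, in Krebs' solution gassed with 95% O2/5% CO2 under 1 g tension, equilibrated 1 h. Bradykinin concentration-effect curves constructed without and with test compounds.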

[3] = test system: SCLC strain SHP-77; test: Colorimetric tetrazolium (MTT) assay for cell survival, SCLC strain SHP-77; assay type: cell-based, human
How it was run: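 MTT assay: cells seeded overnight, treated in triplicate across a concentration range for 4 days at 37 °C, 5% CO2. On day 5, MTT was added for 4 h; formazan was dissolved in acidified isopropanol and absorbance read.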

[4] = cloned human B2 receptors, pD2 for bradykinin is 11
[5] = Table 1, higher numbers indicate higher potency

Compound | MTT: ED50 for killing of SCLC strain SHP-77 in vitro ([3]; Table 1, SHP-77, MTT, 4 days) | GPI: pA2 for bradykinin antagonist activity on isolated guinea pig ileum [2, 5] | other results
CC1(C)CC(NC(=O)[C@H](Cc2ccc3ccccc3c2)NC(=NC2CCCCC2)NC2CCCCC2)CC(C)(C)N1 [M222] | – | – | HUMAN: pA2 for bradykinin antagonist potency on cloned human B2 receptors [1, 4]: Inact; GPI: pA2 for bradykinin antagonist activity on isolated guinea pig ileum ([2]; isolated guinea pig ileum, pD2 of bradykinin is 7.4, higher numbers indicate higher potency): 6.8; MTT: ED50 for killing of SCLC strain SHP-77 in vitro ([3]; SCLC strain SHP-77 in vitro): 15 µM
O=C(C=Cc1cccnc1)Nc1ccc(C(=O)NC(Cc2ccc3ccccc3c2)C(=O)O)cc1 (centres unmarked) [M422] | – | – | HUMAN: pA2 for bradykinin antagonist potency on cloned human B2 receptors [1, 4]: Inact; MTT: ED50 for killing of SCLC strain SHP-77 in vitro ([3]; SCLC strain SHP-77 in vitro): 52 µM
CC1(C)CC(NC(=O)[C@H](CC(=O)O)NC(=O)[C@H](Cc2ccc3ccccc3c2)NC(=O)CCCCCCCCCCC(=O)N[C@@H](Cc2ccc3ccccc3c2)C(=O)N[C@@H](CC(=O)O)C(=O)NC2CC(C)(C)NC(C)(C)C2)CC(C)(C)N1 [M432] | – | – | HUMAN: pA2 for bradykinin antagonist potency on cloned human B2 receptors [1, 4]: 10; MTT: ED50 for killing of SCLC strain SHP-77 in vitro ([3]; SCLC strain SHP-77 in vitro): 70 µM
O=C(C=Cc1cccnc1)NC(Cc1ccc2ccccc2c1)C(=O)Nc1cccc(CO)c1 (centres unmarked) [M474] | – | – | HUMAN: pA2 for bradykinin antagonist potency on cloned human B2 receptors [1, 4]: Inact; MTT: ED50 for killing of SCLC strain SHP-77 in vitro ([3]; SCLC strain SHP-77 in vitro): 35 µM
CN(C)c1ccc(CNC(=O)C(Cc2ccc3ccccc3c2)NC(=O)C=Cc2c(F)c(F)c(F)c(F)c2F)cc1 (centres unmarked) [M536] | – | – | HUMAN: pA2 for bradykinin antagonist potency on cloned human B2 receptors [1, 4]: Inact; MTT: ED50 for killing of SCLC strain SHP-77 in vitro ([3]; SCLC strain SHP-77 in vitro): 4 µM
CN(C)c1cccc2c(S(=O)(=O)NC(Cc3ccc(OCc4ccccc4)cc3)C(=O)NC3CC(C)(C)NC(C)(C)C3)cccc12 (centres unmarked) [M574] | – | – | HUMAN: pA2 for bradykinin antagonist potency on cloned human B2 receptors [1, 4]: Inact; MTT: ED50 for killing of SCLC strain SHP-77 in vitro ([3]; SCLC strain SHP-77 in vitro): 4.5 µM
CC1(C)CC(NC(=O)C(NC(=O)C=Cc2ccc(NC(=O)CCCCCCCCC(=O)O)cc2)C2Cc3ccccc3C2)CC(C)(C)N1 (centres unmarked) [M586-B] | – | – | HUMAN: pA2 for bradykinin antagonist potency on cloned human B2 receptors [1, 4]: 12.3; MTT: ED50 for killing of SCLC strain SHP-77 in vitro ([3]; SCLC strain SHP-77 in vitro): 40 µM
CC1(C)CC(NC(=O)C(Cc2ccc(OCc3c(Cl)cccc3Cl)cc2)NC(=O)C(C#N)=Cc2ccc(O)cc2)CC(C)(C)N1 (centres unmarked) [M602] | – | – | HUMAN: pA2 for bradykinin antagonist potency on cloned human B2 receptors [1, 4]: 10.8; MTT: ED50 for killing of SCLC strain SHP-77 in vitro ([3]; SCLC strain SHP-77 in vitro): 12 µM
DDD-(Arg-DIgl-Oic-Arg-OMe)2 [M598] | 13 µM | – | HUMAN: pA2 for bradykinin antagonist potency on cloned human B2 receptors ([1]; Table 1): 10
DDD-(DArg-OC2Y-Arg)2 [M518] | 15 µM | – | HUMAN: pA2 for bradykinin antagonist potency on cloned human B2 receptors ([1]; Table 1): 10
DDD-(Eac-Arg-DIgl-Oic-Arg-OMe)2 [M608] | 13 µM | – | HUMAN: pA2 for bradykinin antagonist potency on cloned human B2 receptors ([1]; Table 1): Inact
F5c-DArg-Arg-Eac-Ser-DIgl-Oic-Arg [M852] | Inact | 5.9 | –
F5c-DArg-Arg-Eac-Ser-DTic-Oic-Arg [M792] | >100 µM | 4.9 | –
F5c-DArg-Arg-Pro-Hyp-Gly-Igl-Ser-DIgl-Oic-Arg [B10238] | 150 µM | 8.1 | –
F5c-DArg-Eac-2Nal-Arg [M696] | Inact | 5.1 | –
F5c-DArg-Eac-hPhe-Arg [M738] | Inact | 5.3 | –
F5c-F5F-Arg [M810] | 40 µM | 4.6 | –
F5c-Gly-mABz-2Nal-Arg [M196] | Inact | 5.1 | –
F5c-Lys-Ser-DF5F-Oic-Arg [M802] | Inact | 6.3 | –
F5c-MBC-Arg [M528] | Inact | Inact | –
F5c-MFF-Arg [M826] | 76 µM | Inact | –
F5c-NMF-Arg [M686] | 29 µM | 5.6 | –
F5c-PFF-Arg [M718] | 9 µM | 5.1 | –
F5c-PaF(Ppa)-Arg [M720] | Inact | 4.8 | –

Compound | MTT: ED50 for killing of SCLC strain SHP-77 in vitro ([3]; Table 1, SHP-77, MTT, 4 days) | GPI: pA2 for bradykinin antagonist activity on isolated guinea pig ileum [2, 5] | other results
F5c-pABz-2Nal-Arg [M176] | Inact | 5.4 | –
Leu-DTrp-Phe-DTrp-DNMF-Eac2-DArg-Arg-Pro-Hyp-Gly-Igl-Ser-DIgl-Oic-Arg [B10160] | 10 µM | 6.3 | –
Leu-Leu-DTrp-Phe-DTrp-DNMF-Eac2-DArg-Arg-Pro-Hyp-Gly-Igl-Ser-Digl-Oic-Arg [B10162] | 7 µM | 6.3 | –
Moti-DArg-Arg-Pro-Hyp-Gly-Igl-Ser-DIgl-Oic-Arg [B10100-1] | 4 µM | 7.8 | –
Moti-DArg-Arg-Pro-Hyp-Gly-Thi-Ser-DIgl-Oic-Arg [B10104-3] | 20 µM | 8.1 | –
Ppa-hPhe-Arg [M708] | Inact | 5.8 | –
SBEC-(DArg-Arg-Eac-Ser-DF5F-Nc7G-Arg)2 [M1028] | 28 µM | 6.7 | –
SUB-(DArg-Arg-Eac-Ser-DF5f-Nc7G-Arg)2 [M1024] | 14 µM | 7.2 | –
SUIM-(DArg-Arg-Pro-Hyp-Gly-Igl-Ser-DIgl-Oic-Arg-NH2)2 [B10082] | 0.7 µM | 7.2 | –
TDIM-(DArg-Arg-Pro-Hyp-Gly-Igl-Ser-DIgl-Oic-Arg)2 [B10100-2] | 1 µM | 8.0 | –
TDIM-(DArg-Arg-Pro-Hyp-Gly-Thi-Ser-DIgl-Oic-Arg)2 [B10104-2] | 4 µM | 8.0 | –
c[Ava-Igl-Ser-DF5F-Oic-Arg] [M824] | – | – | GPI: pA2 for bradykinin antagonist activity on isolated guinea pig ileum ([2]; Table 3, cyclic peptides): 5.2; MTT: ED50 for killing of SCLC strain SHP-77 in vitro ([3]; Table 3, cyclic peptides): Inact
c[Bala-DArg-Arg-Eac-Ser-DF5F-Oic-Arg] [M910] | – | – | GPI: pA2 for bradykinin antagonist activity on isolated guinea pig ileum ([2]; Table 3, cyclic peptides): 5.2; MTT: ED50 for killing of SCLC strain SHP-77 in vitro ([3]; Table 3, cyclic peptides): 42 µM
c[DArg-Arg-Add-DF5F-Oic-Arg] [M870] | – | – | GPI: pA2 for bradykinin antagonist activity on isolated guinea pig ileum ([2]; Table 3, cyclic peptides): 5.3; MTT: ED50 for killing of SCLC strain SHP-77 in vitro ([3]; Table 3, cyclic peptides): 5.5 µM
c[DArg-Arg-Add-Ser-DF5F-Oic-Arg] [M874] | – | – | GPI: pA2 for bradykinin antagonist activity on isolated guinea pig ileum ([2]; Table 3, cyclic peptides): 5.0; MTT: ED50 for killing of SCLC strain SHP-77 in vitro ([3]; Table 3, cyclic peptides): 11 µM
c[DArg-Arg-Add-Ser-DIgl-PFF-Arg] [M882] | – | – | GPI: pA2 for bradykinin antagonist activity on isolated guinea pig ileum ([2]; Table 3, cyclic peptides): Inact; MTT: ED50 for killing of SCLC strain SHP-77 in vitro ([3]; Table 3, cyclic peptides): 4.5 µM
c[DArg-Arg-Aud-DF5F-Oic-Arg] [M868-2] | – | – | GPI: pA2 for bradykinin antagonist activity on isolated guinea pig ileum ([2]; Table 3, cyclic peptides): 6.1; MTT: ED50 for killing of SCLC strain SHP-77 in vitro ([3]; Table 3, cyclic peptides): 9.2 µM
c[DArg-Arg-Aud-DIgl-PFF-Arg] [M850] | – | – | GPI: pA2 for bradykinin antagonist activity on isolated guinea pig ileum ([2]; Table 3, cyclic peptides): 5.1; MTT: ED50 for killing of SCLC strain SHP-77 in vitro ([3]; Table 3, cyclic peptides): 1.4 µM
c[DArg-Arg-Aud-Ser-DF5F-Oic-Arg] [M876] | – | – | GPI: pA2 for bradykinin antagonist activity on isolated guinea pig ileum ([2]; Table 3, cyclic peptides): 5.4; MTT: ED50 for killing of SCLC strain SHP-77 in vitro ([3]; Table 3, cyclic peptides): 22.5 µM
c[DArg-Arg-Ava-Ser-DF5F-Oic-Arg] [M908] | – | – | GPI: pA2 for bradykinin antagonist activity on isolated guinea pig ileum ([2]; Table 3, cyclic peptides): 4.9; MTT: ED50 for killing of SCLC strain SHP-77 in vitro ([3]; Table 3, cyclic peptides): 40 µM
c[DArg-Arg-Ava-Ser-DIgl-PFF-Arg] [M902] | – | – | GPI: pA2 for bradykinin antagonist activity on isolated guinea pig ileum ([2]; Table 3, cyclic peptides): 5.5; MTT: ED50 for killing of SCLC strain SHP-77 in vitro ([3]; Table 3, cyclic peptides): 30 µM
c[DArg-Arg-Eac-Ser-DF5F-Oic-Arg] [M872] | – | – | GPI: pA2 for bradykinin antagonist activity on isolated guinea pig ileum ([2]; Table 3, cyclic peptides): Inact; MTT: ED50 for killing of SCLC strain SHP-77 in vitro ([3]; Table 3, cyclic peptides): 2.2 µM
c[DArg-Arg-Pro-Hyp-Gly-Igl-Ser-DIgl-Oic-Arg] [B10302] | – | – | GPI: pA2 for bradykinin antagonist activity on isolated guinea pig ileum ([2]; Table 3, cyclic peptides): 5.2; MTT: ED50 for killing of SCLC strain SHP-77 in vitro ([3]; Table 3, cyclic peptides): Inact
